Reference: patent US12668600B2 (Kumquat Biosciences Inc., priority 2023, dated 2026)

What was measured:
Assay type in all cases: biochemical
[1] = biological target: T1, KRAS G12D (Homo sapiens, UniProt P01116, G12D); test: HTRF KRAS-SOS1 interaction assay, KRAS G12D; settings: binned ≤2 μM / >2 μM, read-out: Inhibition of KRAS G12D (IC50)
T1 construct: made in house; host or cells: E. coli, e.g. BL21 (DE3)
Procedure, shortened: (§1)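 Read-out: HTRF ratio 665/620 nm after ≥10 min incubation of compound with GST-KRAS/anti-GST-Eu and His-hSOS1/anti-6His-XL665. Duplicate dose series, 10 μM down to 0.01 μM. Buffer HEPES pH 7.4, NaCl, DTT, BSA, Igepal.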

[2] = biological target: T2, KRAS G12S (Homo sapiens, UniProt P01116, G12S); test: HTRF KRAS-SOS1 interaction assay, KRAS G12S; settings: binned ≤2 μM / >2 μM, read-out: Inhibition of KRAS G12S (IC50)
T2 construct: made in house; host or cells: E. coli, e.g. BL21 (DE3)
T2 sequence (P01116 1-188 isoform P01116-2 G12S): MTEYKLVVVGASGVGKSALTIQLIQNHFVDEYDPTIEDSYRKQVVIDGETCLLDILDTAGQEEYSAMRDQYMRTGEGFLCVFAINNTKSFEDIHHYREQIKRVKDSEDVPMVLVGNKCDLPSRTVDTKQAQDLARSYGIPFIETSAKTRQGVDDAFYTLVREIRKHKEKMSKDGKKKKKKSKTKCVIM
Procedure, shortened: as §1

[3] = biological target: T3, KRAS WT (Homo sapiens, UniProt P01116); test: HTRF KRAS-SOS1 interaction assay, wildtype KRAS; settings: binned ≤2 μM / >2 μM, read-out: Inhibition of KRAS WT (IC50)
T3 construct: made in house; host or cells: E. coli, e.g. BL21 (DE3)
T3 sequence (P01116 1-188 isoform P01116-2): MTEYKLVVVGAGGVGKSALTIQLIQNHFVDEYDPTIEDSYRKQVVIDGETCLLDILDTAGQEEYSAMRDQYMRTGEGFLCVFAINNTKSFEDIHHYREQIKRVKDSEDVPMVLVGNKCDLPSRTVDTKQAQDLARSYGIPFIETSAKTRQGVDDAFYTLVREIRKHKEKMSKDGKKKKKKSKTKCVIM
Procedure, shortened: as §1

[4] = biological target: T4, KRAS G12V (Homo sapiens, UniProt P01116, G12V); test: HTRF KRAS-SOS1 interaction assay, KRAS G12V; settings: binned ≤2 μM / >2 μM, read-out: Inhibition of KRAS G12V (IC50)
T4 construct: made in house; host or cells: E. coli, e.g. BL21 (DE3)
T4 sequence (P01116 1-188 isoform P01116-2 G12V): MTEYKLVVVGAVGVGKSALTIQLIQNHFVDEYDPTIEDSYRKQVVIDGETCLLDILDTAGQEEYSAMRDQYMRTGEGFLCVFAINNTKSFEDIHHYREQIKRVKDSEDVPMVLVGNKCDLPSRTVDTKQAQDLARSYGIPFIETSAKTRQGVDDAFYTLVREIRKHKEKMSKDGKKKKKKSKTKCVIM
Procedure, shortened: as §1

T1 sequence (P01116 1-188 isoform P01116-2 G12D): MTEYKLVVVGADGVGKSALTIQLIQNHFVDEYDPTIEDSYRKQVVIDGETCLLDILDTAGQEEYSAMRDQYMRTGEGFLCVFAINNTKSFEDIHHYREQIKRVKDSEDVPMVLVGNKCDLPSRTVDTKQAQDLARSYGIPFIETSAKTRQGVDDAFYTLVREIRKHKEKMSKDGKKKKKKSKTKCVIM

Compound | IC50 [1] | IC50 [2] | IC50 [3] | IC50 [4]
CCN1CC[C@H](OC)[C@H]1[C@H](C)Oc1nc2c3c(c(C(F)(F)F)c(-c4ccc(F)c5sc(N)c(C#N)c45)c(F)c3n1)OCCN2[C@H](C)c1cccnc1N [Compound 896, 2-amino-4-(4-((R)-1-(2-aminopyridin-3-yl)ethyl)-2-((S)-1-((2R,3S)-1-ethyl-3-methoxypyrrolidin-2-yl)ethoxy)-10-fluoro-8-(trifluoromethyl)-5,6-dihydro-4H-[1,4]oxazepino[5,6,7-de]quinazolin-9-yl)-7-fluorobenzo[b]thiophene-3-carbonitrile] | ≤ 2000 nM | ≤ 2000 nM | ≤ 2000 nM | ≤ 2000 nM
CCN(CC)CCC[C@H](c1cccnc1N)N1CCOc2c(C(F)(F)F)c(-c3ccc(F)c4sc(N)c(C#N)c34)c(F)c3nc(OC[C@@]45CCCN4C[C@H](F)C5)nc1c23 (single isomer, unassigned) [Compound 806] | ≤ 2000 nM | ≤ 2000 nM | ≤ 2000 nM | ≤ 2000 nM
C#CC(F)(F)[C@H](c1cccnc1N)N1CCOc2c(Cl)c(-c3ccc(F)c4sc(N)c(C#N)c34)c(F)c3nc(OC[C@@]45CCCN4C[C@H](F)C5)nc1c23 [Compound 867, 2-amino-4-(4-((S)-1-(2-aminopyridin-3-yl)-2,2-difluorobut-3-yn-1-yl)-8-chloro-10-fluoro-2-(((2R,7aS)-2-fluorotetrahydro-1H-pyrrolizin-7a(5H)-yl)methoxy)-5,6-dihydro-4H-[1,4]oxazepino[5,6,7-de]quinazolin-9-yl)-7-fluorobenzo[b]thiophene-3-carbonitrile] | ≤ 2000 nM | ≤ 2000 nM | ≤ 2000 nM | ≤ 2000 nM
C[C@H](c1cc(F)cnc1N)N1CCOc2c(C(F)(F)F)c(-c3ccc(F)c4sc(N)c(C#N)c34)c(F)c3nc(OC[C@@]45CCCN4CC(=C(F)F)C5)nc1c23 [Compound 675, 2-amino-4-(4-((R)-1-(2-amino-5-fluoropyridin-3-yl)ethyl)-2-(((S)-2-(difluoromethylene)tetrahydro-1H-pyrrolizin-7a(5H)-yl)methoxy)-10-fluoro-8-(trifluoromethyl)-5,6-dihydro-4H-[1,4]oxazepino[5,6,7-de]quinazolin-9-yl)-7-fluorobenzo[b]thiophene-3-carbonitrile] | ≤ 2000 nM | ≤ 2000 nM | ≤ 2000 nM | ≤ 2000 nM
N#Cc1c(N)sc2c(F)ccc(-c3c(C(F)(F)F)c4c5c(nc(OC[C@@]67CCCN6C[C@H](F)C7)nc5c3F)N([C@H](C/C=C/C(F)(F)F)c3cccnc3N)CCO4)c12 (single isomer, unassigned) [Compound 739] | ≤ 2000 nM | ≤ 2000 nM | ≤ 2000 nM | ≤ 2000 nM
C[C@H](c1cccnc1N)N1CCOc2c(Cl)c(-c3ccc(F)c4sc(N)c(C#N)c34)c(F)c3nc(OC[C@@]45CCCN4C[C@]4(CC4(F)F)C5)nc1c23 [Compound 918, 2-amino-4-(4-((R)-1-(2-aminopyridin-3-yl)ethyl)-8-chloro-2-(((1R,7a′S)-2,2-difluorodihydro-1′H,3′H-spiro[cyclopropane-1,2′-pyrrolizin]-7a′(5′H)-yl)methoxy)-10-fluoro-5,6-dihydro-4H-[1,4]oxazepino[5,6,7-de]quinazolin-9-yl)-7-fluorobenzo[b]thiophene-3-carbonitrile] | ≤ 2000 nM | ≤ 2000 nM | ≤ 2000 nM | ≤ 2000 nM
C=CC(F)(F)[C@H](c1cccnc1N)N1CCOc2c(Cl)c(-c3ccc(F)c4sc(N)c(C#N)c34)c(F)c3nc(OC[C@@]45CCCN4C[C@H](F)C5)nc1c23 [Compound 639, 2-amino-4-(4-((S)-1-(2-aminopyridin-3-yl)-2,2-difluorobut-3-en-1-yl)-8-chloro-10-fluoro-2-(((2R,7aS)-2-fluorotetrahydro-1H-pyrrolizin-7a(5H)-yl)methoxy)-5,6-dihydro-4H-[1,4]oxazepino[5,6,7-de]quinazolin-9-yl)-7-fluorobenzo[b]thiophene-3-carbonitrile] | ≤ 2000 nM | ≤ 2000 nM | ≤ 2000 nM | ≤ 2000 nM
N#Cc1c(N)sc2c(F)ccc(-c3c(C(F)(F)F)c4c5c(nc(OCC6(CN7CCC8(CC7)CC8(F)F)CC6)nc5c3F)N([C@H](CCC3CCOCC3)c3cccnc3N)CCO4)c12 [Compound 907, 2-amino-4-(4-((R)-1-(2-aminopyridin-3-yl)-3-(tetrahydro-2H-pyran-4-yl)propyl)-2-((1-((1,1-difluoro-6-azaspiro[2.5]octan-6-yl)methyl)cyclopropyl)methoxy)-10-fluoro-8-(trifluoromethyl)-5,6-dihydro-4H-[1,4]oxazepino[5,6,7-de]quinazolin-9-yl)-7-fluorobenzo[b]thiophene-3-carbonitrile] | ≤ 2000 nM | ≤ 2000 nM | ≤ 2000 nM | ≤ 2000 nM
C[C@H](c1cncnc1N)N1CCOc2c(C(F)(F)F)c(-c3ccc(F)c4sc(N)c(C#N)c34)c(F)c3nc(OCC4(CN5CCC(F)CC5)CC4)nc1c23 [Compound 908, 2-amino-4-(4-((R)-1-(4-aminopyrimidin-5-yl)ethyl)-10-fluoro-2-((1-((4-fluoropiperidin-1-yl)methyl)cyclopropyl)methoxy)-8-(trifluoromethyl)-5,6-dihydro-4H-[1,4]oxazepino[5,6,7-de]quinazolin-9-yl)-7-fluorobenzo[b]thiophene-3-carbonitrile] | ≤ 2000 nM | ≤ 2000 nM | ≤ 2000 nM | ≤ 2000 nM
N#Cc1c(N)sc2c(F)ccc(-c3c(Cl)c4c5c(nc(OC[C@@]67CCCN6C[C@H](F)C7)nc5c3F)N([C@@H](c3cccnc3N)C(F)(F)F)CCO4)c12 [Compound 833, 2-amino-4-(4-((S)-1-(2-aminopyridin-3-yl)-2,2,2-trifluoroethyl)-8-chloro-10-fluoro-2-(((2R,7aS)-2-fluorotetrahydro-1H-pyrrolizin-7a(5H)-yl)methoxy)-5,6-dihydro-4H-[1,4]oxazepino[5,6,7-de]quinazolin-9-yl)-7-fluorobenzo[b]thiophene-3-carbonitrile] | ≤ 2000 nM | ≤ 2000 nM | ≤ 2000 nM | ≤ 2000 nM
C[C@H](c1cc(F)cnc1N)N1CCOc2c(C(F)(F)F)c(-c3ccc(F)c4sc(N)c(C#N)c34)c(F)c3nc(OC[C@@]45CCCN4C[C@H](F)C5)nc1c23 (single isomer, unassigned) [Compound 682] | > 2000 nM | > 2000 nM | > 2000 nM | > 2000 nM
C=CC[C@H](c1cccnc1N)N1CCOc2c(Cl)c(-c3ccc(F)c4sc(N)c(C#N)c34)c(F)c3nc(OC[C@@]45CCCN4C[C@H](F)C5)nc1c23 (atropisomer, axis not shown; (aS)) [Compound 683, 2-amino-4-((R)-4-((R)-1-(2-aminopyridin-3-yl)but-3-en-1-yl)-8-chloro-10-fluoro-2-(((2R,7aS)-2-fluorotetrahydro-1H-pyrrolizin-7a (5H)-yl)methoxy)-5,6-dihydro-4H-[1,4]oxazepino[5,6,7-de]quinazolin-9-yl)-7-fluorobenzo[b]thiophene-3-carbonitrile] | ≤ 2000 nM | ≤ 2000 nM | ≤ 2000 nM | ≤ 2000 nM
C[C@H](c1cncnc1N)N1CCOc2c(C(F)(F)F)c(-c3ccc(F)c4sc(N)c(C#N)c34)c(F)c3nc(OCC4(CN5CCC(=CF)CC5)CC4)nc1c23 [Compound 916, 2-amino-4-(4-((R)-1-(4-aminopyrimidin-5-yl)ethyl)-10-fluoro-2-((1-((4-(fluoromethylene)piperidin-1-yl)methyl)cyclopropyl)methoxy)-8-(trifluoromethyl)-5,6-dihydro-4H-[1,4]oxazepino[5,6,7-de]quinazolin-9-yl)-7-fluorobenzo[b]thiophene-3-carbonitrile] | ≤ 2000 nM | ≤ 2000 nM | ≤ 2000 nM | ≤ 2000 nM
